Tests used:
[1] = biological target: human Smo (Homo sapiens (Human), UniProt Q99835); experiment: Smo radioligand competition binding assay; conditions: for inhibition at 0.05 µM: read-out: Smo % inh. @ 0.05 μM
Description: Smo Radioligand Competition Binding Assay
Membranes were prepared from a stable cell line created in HEK293FlpIn-TetR cells (Invitrogen) using Flp recombinase-mediated insertion of the pSecTag-FRT/V5-His vector containing a cDNA encoding amino acids […] of human Smo fused to the murine Igk leader sequence to produce a cell surface expressed Smo 181-781 protein. Hygromycin-resistant clones were obtained and stained for LacZ expression (no expression indicates a correct knock-in of fusion cDNA). LacZ-negative cells were analyzed for binding tritiated Smo antagonists. For membrane preparation, the HEK293 cells expressing Smo 181-781 were grown to 90% confluence in nine to fifteen 245 mm×245 mm×22 mm dishes, washed with Dulbecco's PBS (15 mL per dish) and harvested via scraping in 10 mL of DPBS. The cells were collected and centrifuged at 1500 rpm (400×g) for 10 min at 4° C. The cell pellets were re-suspended in 40 mL of cold DPBS and washed by centrifugation at 2300 rpm (950×g max) for 10 minutes at 4° C. The supernatant was aspirated and the cell pellet was snap frozen in a methanol/dry ice bath and stored at −70° C. For membrane preparation, 15 mL of Membrane Preparation Buffer (50 mM Tris-HCl pH 7.5, 250 mM sucrose with Roche complete protease cocktail tablets) was added to the tube containing the cell pellet, then cells are rapidly thawed, and homogenized using an Ultra-Turrax T8 (IKA Labortechnik) set on “6” for 15 seconds for 5-6 times in icy water bath. This homogenate was diluted up to 50 mL using Membrane Preparation Buffer and centrifuged at 35,000 rpm in a Beckman Ti45 rotor (140,000×g) for 35 minutes at 4° C. followed by aspiration of the supernatant and re-suspension of the pellet in 5 mL of Assay Buffer (50 mM Tris-HCl pH 7.5, 100 mM NaCl, 25 mM MgCl2, 1 mM EDTA, and 0.1% protease free bovine serum albumin). The re-suspended pellet was then homogenized in a glass tissue grinder. The re-suspended membranes were aliquoted (0.5 mL aliquots), snap frozen and stored at −70° C. Total protein in the membrane preparation was determined using the Pierce BCA protein assay (Pierce Chemical).
For the binding competition assay, 100 μL of Assay Buffer was added to all the wells of a 96 well GF/B filter plate (Millipore MultiScreen-HTS-FB cat# MSFBN6B50) for 10 minutes to pre-wet the filter prior to evacuation of the buffer (8 inches Hg for 8 seconds). To the pre-wet wells is added: 20 μL of Assay Buffer, 10 μL diluted test agent, 20 μL of a tritiated Smo antagonist (15 nM stock solution), and 50 μL of membrane preparation (40 μg total protein per well). The plates are sealed and mixed at room temperature for 5 min, incubated at room temperature for 2 hours, then washed 5 times with 100 μL/each of wash buffer and vacuum dried for 8 seconds at 8 inches Hg. The plate is then dried for one hour in a 60° C. oven prior to the addition of 45 μL of Microscint 20 (Packard, #6013621) to each well and incubation at RT for 30 minutes to 1 hour. The plate is counted in a TopCount scintillation counter (Perkin Elmer).
Data analysis uses Excel for % Inhibition and Graphpad Prism for IC50 calculation. Total binding (TB, in the absence of inhibitors)=average of tritiated Smo antagonist 3 nM+Smo membrane (40 μg/wells (approx 5000-7000 CPM)). Non-specific binding (NSB)=average of tritiated Smo antagonist (3 nM)+cold Smo antagonist (30 μM)+Smo membrane (approx 600-1200 CPM). Specific binding (SB)=(total binding−non-specific binding). % Inhibition=[1−(compound Specific binding/control Specific binding)]×100%. IC50 is calculated by fitting the data to the four parameter sigmoidal dose-response curve (variable slope) Y=Bottom+(Top-Bottom)/(1+10^((LogEC50−X)*HillSlope)). X is the logarithm of the inhibitor concentration. Y is the response; Y starts at Bottom and goes to Top with a sigmoid shape.

[2] = tested on: Gli-Luc/MEF cells; experiment: Gli-Luc/MEF assay; type: cell-based, mouse; conditions: Shh-stimulated luciferase, 48 hours
Description: The Gli-Luc/MEF cells obtained from Gli-Luc transgenic mice contain a luciferase reporter gene under the control of the Gli response element. Luciferase activity stimulated with Sonic hedgehog ligand was inhibited by Smo inhibitors, and IC50 was subsequently calculated.
Plates were incubated at 37° C. and 5% CO2 overnight. On day two, cells were dosed with test compounds at a final concentration ranging from 3 μM to 50 μM at a 3-time series dilution. Immediately after dosing cells with compounds, recombinant mouse sonic hedgehog (Shh, R&D Systems 464-SH) was added to a final concentration of 2 μg/mL. The cells were incubated with compounds and Shh for 48 hours at 37° C. and 5% CO2. Luciferase assays were conducted on Day 4 using the Bright-Glo Luciferase assay system (Promega E2620) according to Promega's protocol. Briefly, Bright-Glo luciferase reagent was made up and 25 μL were added to each well of the 384-well plate containing media. Plates were kept at room temperature for 5 minutes, and then read on an Envision Luminescence plate reader (Perkin-Elmer). IC50 of the inhibition was calculated by using GraphPad Prism.

Sequence of human Smo (Q99835 181-787): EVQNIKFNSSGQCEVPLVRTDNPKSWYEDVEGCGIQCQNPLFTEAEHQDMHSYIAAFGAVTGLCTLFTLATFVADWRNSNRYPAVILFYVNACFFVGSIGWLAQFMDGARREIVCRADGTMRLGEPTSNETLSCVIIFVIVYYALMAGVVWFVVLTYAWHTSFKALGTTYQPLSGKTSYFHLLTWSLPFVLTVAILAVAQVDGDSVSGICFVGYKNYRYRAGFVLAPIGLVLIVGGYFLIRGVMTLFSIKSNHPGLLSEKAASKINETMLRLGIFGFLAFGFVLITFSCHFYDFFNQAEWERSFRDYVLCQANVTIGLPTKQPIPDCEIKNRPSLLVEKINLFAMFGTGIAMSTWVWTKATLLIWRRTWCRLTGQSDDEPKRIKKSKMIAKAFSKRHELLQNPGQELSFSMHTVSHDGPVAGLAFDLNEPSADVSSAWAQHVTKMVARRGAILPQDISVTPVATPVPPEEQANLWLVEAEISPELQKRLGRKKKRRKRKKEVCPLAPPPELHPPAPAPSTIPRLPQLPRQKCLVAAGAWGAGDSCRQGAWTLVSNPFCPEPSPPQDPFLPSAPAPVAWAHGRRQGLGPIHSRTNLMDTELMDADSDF

Molecule: Cc1cccnc1-c1cc(N2CCC(C(=O)N[C@H]3CC[C@H](CO)CC3)CC2)ncc1Cl [Example A-89, 1-(5′-chloro-3-methyl-2,4′-bipyridin-2′-yl)-N-[trans-4-(hydroxymethyl)cyclohexyl]piperidine-4-carboxamide]
- IC50 [1]: 28.5 nM
- inhibition at 0.05 µM ([1]; 0.05 μM test compound): 94.6%
- IC50 ([2]; Mus musculus, MEF): 24.4 nM

Molecule: Cc1cccnc1-c1nc(N2CCC(NS(C)(=O)=O)CC2)ccc1Cl [Example A-16, N-[1-(3-chloro-3′-methyl-2,2′-bipyridin-6-yl)piperidin-4-yl]methanesulfonamide]
- IC50 [1]: 20.6 nM
- inhibition at 0.05 µM ([1]; 0.05 μM test compound): 97.8%
- IC50 ([2]; Mus musculus, MEF): 14.5 nM

Molecule: CS(=O)(=O)NC1CCN(c2ccc(Cl)c(-c3ccccn3)n2)CC1 [Example A-15, N-[1-(3-chloro-2,2′-bipyridin-6-yl)piperidin-4-yl]methanesulfonamide]
- IC50 [1]: 34.3 nM
- inhibition at 0.05 µM ([1]; 0.05 μM test compound): 83%
- IC50 ([2]; Mus musculus, MEF): 78.5 nM

Molecule: Cc1cc(F)cnc1-c1cc(N2CCC(NC(=O)CC(C)(C)O)CC2)ncc1Cl [Example A-146, N-[1-(5′-chloro-5-fluoro-3-methyl-2,4′-bipyridin-2′-yl)piperidin-4-yl]-3-hydroxy-3-methylbutanamide]
- IC50 [1]: 52.2 nM
- inhibition at 0.05 µM ([1]; 0.05 μM test compound): 87.4%
- IC50 ([2]; Mus musculus, MEF): 20.7 nM

Molecule: COCC(=O)NC1CCN(c2cc(-c3ncc(C)cc3C)c(Cl)cn2)CC1 [Example A-135, N-[1-(5′-chloro-3,5-dimethyl-2,4′-bipyridin-2′-yl)piperidin-4-yl]-2-methoxyacetamide]
- IC50 [1]: 40 nM
- inhibition at 0.05 µM ([1]; 0.05 μM test compound): 94%
- IC50 ([2]; Mus musculus, MEF): 7.6 nM

Molecule: COc1cnc(NC(=O)C2CCN(c3cc(-c4ncccc4C)c(Cl)cn3)CC2)cn1 [Example A-59, 1-(5′-chloro-3-methyl-2,4′-bipyridin-2′-yl)-N-(5-methoxypyrazin-2-yl)piperidine-4-carboxamide]
- IC50 [1]: 71.4 nM
- inhibition at 0.05 µM ([1]; 0.05 μM test compound): 89.5%
- IC50 ([2]; Mus musculus, MEF): 21.2 nM

Molecule: COC(=O)N1CCN(c2cc(-c3ncccc3C)c(Cl)cn2)CC1 [Example A-24, methyl 4-(5′-chloro-3-methyl-2,4′-bipyridin-2′-yl)piperazine-1-carboxylate]
- IC50 [1]: 243 nM
- inhibition at 0.05 µM ([1]; 0.05 μM test compound): 69.3%
- IC50 ([2]; Mus musculus, MEF): 126 nM

Molecule: Cc1cccnc1-c1cc(N2CCC(CNS(C)(=O)=O)CC2)ncc1Cl [Example A-48, N-{[1-(5′-chloro-3-methyl-2,4′-bipyridin-2′-yl)piperidin-4-yl]methyl}methanesulfonamide]
- IC50 [1]: 57 nM
- inhibition at 0.05 µM ([1]; 0.05 μM test compound): 82%
- IC50 ([2]; Mus musculus, MEF): 48 nM

Molecule: COC(=O)NC1CCN(c2cc(-c3ncccc3C)c(Cl)cn2)CC1 [Example A-32, methyl [1-(5′-chloro-3-methyl-2,4′-bipyridin-2′-yl)piperidin-4-yl]carbamate]
- IC50 [1]: 77.9 nM
- inhibition at 0.05 µM ([1]; 0.05 μM test compound): 86.6%
- IC50 ([2]; Mus musculus, MEF): 27.4 nM

Molecule: Cc1cccnc1-c1cc(N2CCC(C(=O)N3CC(S(=O)(=O)CC4CC4)C3)CC2)ncc1Cl [Example A-62, 5′-chloro-2′-[4-({3-[(cyclopropylmethyl)sulfonyl]azetidin-1-yl}carbonyl)piperidin-1-yl]-3-methyl-2,4′-bipyridine]
- IC50 [1]: 234 nM
- inhibition at 0.05 µM ([1]; 0.05 μM test compound): 72.4%
- IC50 ([2]; Mus musculus, MEF): 106 nM

Molecule: N-[(3-endo)-8-(5′-chloro-3-methyl-2,4′-bipyridin-2′-yl)-8-azabicyclo[3.2.1]oct-3-yl]methanesulfonamide [Example A-124]
- IC50 [1]: 100 nM
- Smo % inh. @ 0.05 μM ([1]; 0.05 μM test compound): 79.9%
- IC50 [2]: 25.3 nM

Molecule: Cc1cccnc1-c1cc(N2CCC(C(=O)NCC3CN(CC4CC4)C(=O)CO3)CC2)ncc1Cl (stereo not shown) [Example A-74, 1-(5′-chloro-3-methyl-2,4′-bipyridin-2′-yl)-N-{[4-(cyclopropylmethyl)-5-oxomorpholin-2-yl]methyl}piperidine-4-carboxamide]
- IC50 [1]: 25.5 nM
- inhibition at 0.05 µM ([1]; 0.05 μM test compound): 97.8%
- IC50 ([2]; Mus musculus, MEF): 23 nM

Molecule: Cc1cccnc1-c1nc(N2CCC(NS(C)(=O)=O)CC2)ncc1Cl [Example A-34, N-{1-[5-chloro-4-(3-methylpyridin-2-yl)pyrimidin-2-yl]piperidin-4-yl}methanesulfonamide]
- IC50 [1]: 24.4 nM
- inhibition at 0.05 µM ([1]; 0.05 μM test compound): 94.8%
- IC50 ([2]; Mus musculus, MEF): 20.9 nM

Molecule: Cc1cccnc1-c1cc(N2CCC(C(=O)N3CCN(c4ccc(O)nn4)CC3)CC2)ncc1Cl [Example A-82, 6-(4-{[1-(5′-chloro-3-methyl-2,4′-bipyridin-2′-yl)piperidin-4-yl]carbonyl}piperazin-1-yl)pyridazin-3-ol]
- IC50 [1]: 39.2 nM
- inhibition at 0.05 µM ([1]; 0.05 μM test compound): 92.6%
- IC50 ([2]; Mus musculus, MEF): 38.8 nM

Molecule: Cc1cc(Cl)cnc1-c1cc(N2CCC(NS(C)(=O)=O)CC2)ncc1Cl [Example A-109, N-[1-(5,5′-dichloro-3-methyl-2,4′-bipyridin-2′-yl)piperidin-4-yl]methanesulfonamide]
- IC50 [1]: 20.5 nM
- inhibition at 0.05 µM ([1]; 0.05 μM test compound): 97.4%
- IC50 ([2]; Mus musculus, MEF): 6.81 nM

Molecule: Cc1cnc(-c2cc(N3CCC(NC(=O)CO)CC3)ncc2Cl)c(C)c1 [Example A-113, N-[1-(5′-chloro-3,5-dimethyl-2,4′-bipyridin-2′-yl)piperidin-4-yl]-2-hydroxyacetamide]
- IC50 [1]: 55.6 nM
- inhibition at 0.05 µM ([1]; 0.05 μM test compound): 84%
- IC50 ([2]; Mus musculus, MEF): 11.7 nM

Molecule: Cc1cc(C#N)cnc1-c1cc(N2CCC(NS(C)(=O)=O)CC2)ncc1Cl [Example A-125, N-[1-(5′-chloro-5-cyano-3-methyl-2,4′-bipyridin-2′-yl)piperidin-4-yl]methanesulfonamide]
- IC50 [1]: 95.6 nM
- inhibition at 0.05 µM ([1]; 0.05 μM test compound): 82.3%
- IC50 ([2]; Mus musculus, MEF): 32.3 nM

Molecule: COCCS(=O)(=O)N1CCN(c2ccc(Cl)c(-c3ccccn3)n2)CC1 [Example A-136, 3-chloro-6-{4-[(2-methoxyethyl)sulfonyl]piperazin-1-yl}-2,2′-bipyridine]
- IC50 [1]: 328 nM
- inhibition at 0.05 µM ([1]; 0.05 μM test compound): 58.8%
- IC50 ([2]; Mus musculus, MEF): 117 nM

Molecule: Cc1ccc(-c2nc(N3CCN(C(=O)CCS(C)(=O)=O)CC3)ccc2Cl)nc1 [Example A-147, 1-[4-(3-chloro-5′-methyl-2,2′-bipyridin-6-yl)piperazin-1-yl]-3-(methylsulfonyl)propan-1-one]
- inhibition at 0.05 µM ([1]; 0.05 μM test compound): 94.7%
- IC50 ([2]; Mus musculus, MEF): 14.4 nM

Molecule: O=S(=O)(CCO)N1CCN(c2ccc(Cl)c(-c3ccccn3)n2)CC1 [Example A-137, 2-{[4-(3-chloro-2,2′-bipyridin-6-yl)piperazin-1-yl]sulfonyl}ethanol]
- inhibition at 0.05 µM ([1]; 0.05 μM test compound): 45.8%

Molecule: CS(=O)(=O)NC1CCN(c2cc(-c3ccccn3)c(Cl)cn2)CC1 [Example A-7, N-[1-(5′-chloro-2,4′-bipyridin-2′-yl)piperidin-4-yl]methanesulfonamide]
- inhibition at 0.05 µM ([1]; 0.05 μM test compound): 45%

Source: patent US9056865B2, “Pyridine-2-derivatives as smoothened receptor modulators” (Pfizer Inc., priority 2010, dated 2015)
